The subject of one series is RAW 264.7 cells. Description: Macrophage viability (MTT assay) in RAW 264.7 cells. The series is classed as cell-based. Particulars: mouse macrophages; 50 μM; 24 hours. Here is the method: THP-1 and RAW 264.7 cells (ATCC, Manassas, VA, USA) were cultured at 37 °C and 5% CO2 in RPMI (Roswell Park Memorial Institute) medium and Dulbecco's modified Eagle medium supplemented with fetal bovine serum (FBS, 10%), 4 mM L-glutamine, 1 mM sodium pyruvate, penicillin (100 units/ml), and streptomycin (0.1 mg/ml). THP-1 cells, which are monocytes, were differentiated into macrophages by treatment with 80 nM phorbol 12-myristate 13-acetate (PMA, Sigma-Aldrich) for 24 hours. The cells were cultured at 37 °C and 5% CO2 in a humidified incubator (Thermo Fisher Scientific, Inc.), and the medium was replaced every 18 hours.
To evaluate the cytotoxic effect of the peptide on mouse and human macrophages, RAW 264.7 cells and THP-1-derived macrophages were seeded at respective densities of 5×10^4/well and 2×10^5/well in 96-well plates (BD Biosciences, San Jose, CA, USA) followed by culture overnight at 37 °C in a humidified incubator. After treating the cells with the peptide at the corresponding concentration for 24 hours, viability was measured using 3-(4,5-dimethylthiazol-2-yl)-2,5-diphenyltetrazolium bromide (MTT) assay (Sigma-Aldrich). […] Relative cell viability was calculated by measuring absorbance at 570 nm, and the untreated control group was designated as having a relative viability of 100%. […]
In general terms: Formazan colour is commonly taken as a measure of viable cells.

Another series concerns the target human MyD88 protein (Homo sapiens, UniProt Q99836). In words: Surface plasmon resonance (SPR) analysis of MyDIP2-4 and MyD88. The series is classed as binding. Conditions: MyD88 immobilized on NTA chip, MyDIP2-4 0.8 to 12.8 μM in PBS. Here is the method: The biophysical interactions between MyDIP2-4 and MyD88 were evaluated using SPR analysis in an iMSPR-mini system (icluebio, Seongnam, Korea). MyD88 protein was immobilized on the surface of a nitrilotriacetic acid (NTA) sensor chip at a concentration of 50 μg/ml. MyDIP2-4 was injected into the MyD88-binding chip at various concentrations ranging from 0.8 to 12.8 μM (dissolved in PBS) at a flow rate of 50 μl/min. PBS was used as a running buffer and injected into the empty channel as a reference. Experiments were performed twice using freshly prepared reagents, and data were analyzed using TraceDrawer software (Ridgeview Instruments; Uppsala, Sweden).
SPR technology was used to evaluate the biophysical interaction between the MyDIP2-4 peptide and the MyD88 protein. SPR analysis involves immobilizing the MyD88 protein on the surface of a sensor chip and then flowing the MyDIP2-4 peptide at various concentrations.

Series [1] relates to C57BL/6 mice with MOG35-55-induced EAE. In words: MOG35-55-induced experimental autoimmune encephalomyelitis (EAE) model. In kind it is in vivo, mouse. As for the experimental part:
Eight-week-old female C57BL/6 (B6) mice (Orient Bio, Korea) were maintained in a specific pathogen-free environment on a standard laboratory ad libitum diet. All experiments were approved by the Animal Care and Use Committee [NDIC Approval Nos. 12022111 (EAE) and I2022053-3 (psoriasis), Hwaseong, Korea] and were performed in accordance with relevant guidelines and regulations.
EAE was induced in mice using the Hooke Kit (MOG35-55/complete Freund's adjuvant (CFA) Emulsion PTX (Hooke Laboratories, LLC, Lawrence, MA, USA)) according to the manufacturer's protocol. Mice were immunized subcutaneously with myelin oligodendrocyte glycoprotein emulsified in complete Freund's adjuvant. […]
Mice were weighed and examined daily, and EAE symptoms were assessed using the following standard scoring system: 0-6: 0, no symptoms; 1, limp tail; 2, limp tail and hind limb paralysis; 3, paralysis of one or more hind limbs; 4, complete hind limb and hindquarter paralysis; 5, hindquarter paralysis with forelimb paralysis; and 6, death. […]
To investigate the therapeutic potential of MyDIP2-4 on EAE progression, mice were immunized with MOG35-55 peptide in CFA and pertussis toxin was administered once on day 0 and again 24 hours later. […] Mouse body weight and EAE clinical scores were recorded three times a week: days 0, 2, 5, 7, 9, 12, 14, 16, 19, and 21.

For series [2], the system named is C57BL/6 mice with IMQ-induced psoriasis. Description: Imiquimod-induced psoriasis model. In kind it is in vivo, mouse. Particulars: MyDIP2-4 5 and 20 mg/kg i.p., dexamethasone 10 mg/kg oral. Here is the method:
Six-week-old female C57BL/6 mice (Orient Bio, Seongnam, Korea) were housed under specific pathogen-free conditions on a standard laboratory ad libitum diet. Animal experiments related to psoriasis were approved by the Animal Care and Use Committee [NDIC Approval Nos. 12022111 (EAE) and I2022053-3 (psoriasis), Hwaseong, Korea] and were performed in accordance with relevant guidelines and regulations.
Disease was induced by topical application of Aldara cream (Donga ST; Seoul, Korea) containing 5% imiquimod onto the back of six-week-old female C57BL/6 mice for 5 consecutive days. MyDIP2-4 was administered intraperitoneally at doses of 5 and 20 mg/kg. As a positive control group, dexamethasone (Sigma-Aldrich; cat. No. D1756) was administered orally at a dose of 10 mg/kg. Five days later, mice were sacrificed under respiratory anesthesia, and skin lesions were collected for histological examination.
An objective scoring system to quantify the severity of back skin inflammation was established based on the PASI scoring system, a widely used clinical tool to assess psoriasis severity. On a scale from 0 to 4, factors such as erythema, scaling, wrinkles, and thickness were individually assessed as follows: 0, none; 1, weak; 2, moderate; 3, significant; and 4, very evident. Under the careful supervision of experienced investigators, erythema, scaling, and thickness were graded. The cumulative score (erythema+scaling+thickness score, scale 0-12) indicates the severity of psoriasis symptoms.
Skin tissue was removed, the upper layer was fixed in neutral formalin, and H&E staining and IHC were performed. Epidermal thickness of skin tissue was measured using H&E staining. IL-17, KI-67, and IL-23 levels were measured using IHC with the aid of antibodies against IL-17A (Thermo Fisher Scientific; cat. No. PA5-79470), KI-67 (Cell Signaling; cat. No. 12202), and IL-23 (Novus Biologicals; cat. No. NBP1-76697).
To establish an IMQ-induced psoriasis model, Aldara cream containing 5% imiquimod was topically applied onto the back of six-week-old female C57BL/6 mice for 5 consecutive days. […]

Where a name gives a salt, the structure may show the parent alone. No end group written: not given here.

human MyD88 protein, sequence (Q99836 whole entry): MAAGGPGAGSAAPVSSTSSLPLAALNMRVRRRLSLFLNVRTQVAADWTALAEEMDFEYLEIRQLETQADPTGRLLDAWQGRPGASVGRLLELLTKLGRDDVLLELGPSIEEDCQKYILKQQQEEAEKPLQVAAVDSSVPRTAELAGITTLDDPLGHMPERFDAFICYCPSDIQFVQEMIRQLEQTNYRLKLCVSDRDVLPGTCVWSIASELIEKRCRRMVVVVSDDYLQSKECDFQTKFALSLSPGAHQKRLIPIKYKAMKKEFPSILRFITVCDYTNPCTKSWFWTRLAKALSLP

In the case of “RQIKIWFQNRRMKWKKWLWFILFKKLSLP [MyDIP2-4]”, in the series on RAW 264.7 cells, the “cytotoxicity (MTT)” value was “not cytotoxic”. Besides, the kon on human MyD88 protein (read-out: rate constant for association (Ka)) was 3.7 M⁻¹ s⁻¹. Also, the koff at human MyD88 protein (read-out: rate constant for dissociation (Kd)) is 1.37e-07 s⁻¹. In addition, in series [1] (MyDIP2-4 40 mg/kg i.p. once daily, DMF 100 mg/kg), the “body weight compared to DMF-treated mice (EAE)” value is on record as “no difference in body weight”.

Turning to `C[C@@H]1C[C@H]2[C@@H]3CCC4=CC(=O)C=C[C@]4(C)[C@@]3(F)[C@@H](O)C[C@]2(C)[C@@]1(O)C(=O)CO` [dexamethasone], the epidermal thickness entry in series [2] (H&E) is listed as “significantly reduced”. In series [2] (IHC), the “IL-17 expression in skin tissue” value is “did not inhibit” and the “KI-67 in skin tissue (KI-67-positive cells)” value is given as “significant decrease”.

On to `COC(=O)/C=C/C(=O)OC` [DMF, dimethyl fumarate], for which the “EAE clinical score compared to MyDIP2-4” value in series [1] (day 21, DMF 100 mg/kg vs MyDIP2-4 40 mg/kg) is given as “reduced clinical scores”.

The values are drawn from patent publication US20260356887A1, “NOVEL MYD88 INHIBITOR FOR TREATMENT OF AUTOIMMUNE DISEASES AND USES THEREOF” (S&K THERAPEUTICS, priority 2023, published 2026).
